Measurements as given in ChEMBL document CHEMBL2375321, “Discovery of 3,3'-diindolylmethanes as potent antileishmanial agents” (Eur J Med Chem, 2013).
≈ marks a conversion by molar mass, not a printed value. Calls of active or inactive are those of the source. Unless noted, the calls are words filed in the database; no cut-off is given here.

Tests used:
[1] = test system: Vero; test: Cytotoxicity against african green monkey Vero cells up to 4.6 ug/ml after 48 hrs by neutral red assay; type: cell-based; conditions: chlorocebus sabaeus
[2] = test system: Leishmania donovani; test: Antileishmanial activity against axenic amastigote of Leishmania donovani after 72 hrs by alamar blue assay; type: functional, organism-based
[3] = test system: Leishmania donovani; test: Antileishmanial activity against promastigote of Leishmania donovani after 72 hrs by alamar blue assay; type: functional, organism-based
[4] = test system: Cryptococcus neoformans; test: Antifungal activity against Cryptococcus neoformans ATCC 90113 by CLSI method; type: functional, organism-based
[5] = test system: Candida albicans; test: Antifungal activity against Candida albicans ATCC 90028 by CLSI method; type: functional, organism-based
[6] = test system: Aspergillus fumigatus; test: Antifungal activity against Aspergillus fumigatus ATCC 204305 by CLSI method; type: functional, organism-based
[7] = test system: Mycobacterium intracellulare; test: Antibacterial activity against Mycobacterium intracellulare ATCC 23068 by alamar blue assay; type: functional, organism-based
[8] = test system: Staphylococcus aureus; test: Antibacterial activity against methicillin-resistant Staphylococcus aureus ATCC 33591 by CLSI method; type: functional, organism-based; conditions: for IC50: Staphylococcus aureus, ATCC 33591, read-out: IC50
[9] = test system: Staphylococcus aureus; test: Antibacterial activity against Staphylococcus aureus ATCC 29213 by CLSI method; type: functional, organism-based
[10] = Leishmania donovani, 72 h, read-out: IC50
[11] = Mycobacterium intracellulare, ATCC 23068
[12] = Mycobacterium intracellulare, ATCC 23068, read-out: IC50

SMILES	Activity [1]	IC90 [2]	IC50 [2, 10] [µM]	IC90 ([3]; Leishmania donovani, 72 h) [µM]	IC50 [3, 10] [µM]	IC90 ([2]; Leishmania donovani, 72 h) [µM]	IC50 [2]	also measured
c1ccc2c(C(c3c[nH]c4ccccc34)c3c[nH]c4ccccc34)c3ccccc3cc2c1	Non-toxic	inactive	53.4	91.9	82	–	–	–
N=C(N)c1ccc(OCCCCCOc2ccc(C(=N)N)cc2)cc1 [PENTAMIDINE]	–	–	–	6.21	3.29	14.3	–	–
COc1ccc2[nH]cc(C(c3ccc([N+](=O)[O-])cc3)c3c[nH]c4ccc(OC)cc34)c2c1	Non-toxic	–	14.7	18.8	12.1	64.2	–	–
Clc1cccc(Cl)c1C(c1c[nH]c2ccc(I)cc12)c1c[nH]c2ccc(I)cc12	Non-toxic	inactive	–	–	–	–	Not Active	IC50 [3]: Not Active; IC90 [3]: inactive
Fc1ccc(C(c2c[nH]c3ccc(I)cc23)c2c[nH]c3ccc(I)cc23)cc1Br	Non-toxic	–	18.2	18.2	9.84	31.4	–	IC50 [4]: 16.8 µM; MFC [4]: 29.9 µM (≈ 20 µg/mL); MIC [4]: 29.9 µM (≈ 20 µg/mL); Activity [5]: inactive; Activity [6]: inactive
O=C(O)c1cn(C2CC2)c2cc(N3CCNCC3)c(F)cc2c1=O [CIPROFLOXACIN]	–	–	–	–	–	–	–	MBC [7, 11]: 3.02 µM (≈ 1 µg/mL); IC50 [7, 12]: 1 µM
Ic1ccc2[nH]cc(C(c3cccc4ccccc34)c3c[nH]c4ccc(I)cc34)c2c1	Non-toxic	inactive	–	–	–	–	Not Active	IC50 [3]: Not Active; IC90 [3]: inactive
COc1ccc2[nH]cc(C(c3ccc(Br)cc3)c3c[nH]c4ccc(OC)cc34)c2c1	Non-toxic	inactive	–	58.5	32.7	–	Not Active	–
C[C@@H]1[C@H](O)[C@@H](C)/C=C/C=C/C=C/C=C/C=C/C=C/C=C/[C@H](O[C@@H]2O[C@H](C)[C@@H](O)[C@H](N)[C@@H]2O)C[C@@H]2O[C@](O)(C[C@@H](O)C[C@@H](O)[C@H](O)CC[C@@H](O)C[C@@H](O)CC(=O)O[C@H]1C)C[C@H](O)[C@H]2C(=O)O [AMPHOTERICIN B]	–	–	–	0.35	–	[…]	–	IC50 [4]: 0.85 µM; MFC [4]: 1.35 µM (≈ 1.25 µg/mL); MIC [4]: 1.35 µM (≈ 1.25 µg/mL); Activity [5]: inactive; Activity [6]: inactive
Fc1cc(F)cc(C(c2c[nH]c3ccc(I)cc23)c2c[nH]c3ccc(I)cc23)c1	Non-toxic	–	23.2	41.2	24.2	44.5	–	–
COc1ccc2[nH]cc(C(c3cccs3)c3c[nH]c4ccc(OC)cc34)c2c1	Non-toxic	–	59	65.8	38.1	84.8	–	–
COc1ccc2[nH]cc(C(c3c(Cl)cccc3Cl)c3c[nH]c4ccc(OC)cc34)c2c1	Non-toxic	inactive	–	–	–	–	Not Active	IC50 [7]: Not Active; MBC [7]: inactive; MIC [7]: inactive; MBC [8]: inactive; MIC [8]: inactive; IC50 [8]: 17.2 µM; IC50 [9]: 7.51 µM; MBC [9]: inactive; MIC [9]: inactive; IC50 [3]: Not Active; IC90 [3]: inactive
COc1ccc(C(c2c[nH]c3ccccc23)c2c[nH]c3ccccc23)cc1Br	Non-toxic	inactive	–	–	82.9	–	Not Active	IC50 [7]: Not Active; MBC [7]: inactive; MIC [7]: inactive; MBC [8]: inactive; MIC [8]: inactive; IC50 [8]: 31.5 µM; IC50 [9]: 7.84 µM; MBC [9]: inactive; MIC [9]: inactive; IC90 [3]: inactive
COc1ccc2[nH]cc(C(c3ccc(F)c(Br)c3)c3c[nH]c4ccc(OC)cc34)c2c1	Non-toxic	–	47.6	46.6	15.8	66.8	–	MBC [7]: inactive; MIC [7, 11]: 41.8 µM (≈ 20 µg/mL); IC50 [7, 12]: 39.6 µM; MBC [8]: inactive; MIC [8]: inactive; IC50 [8]: 4.67 µM; IC50 [9]: 3.45 µM; MBC [9]: inactive; MIC [9]: 10.5 µM (≈ 5.03 µg/mL)
